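Values below derive from 48-hour exposures of cells grown in 96-well plates, with endpoints linearly interpolated between the two concentrations bracketing the appropriate inhibition level. Abbreviation: GI50, concentration required for 50% inhibition of growth.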 Active and inactive are the calls of the source. Cut-off read from the data, not from the text of the source: active = GI50 up to about 1.1 µM and inactive = higher.
Experiments:
Assay in all cases: NCI tumour cell line growth inhibition, 48 h
[1] = test system: 786-0
[2] = test system: A498
[3] = test system: A549
[4] = test system: CAKI-1
[5] = test system: EKVX
[6] = test system: HCT-15
[7] = test system: HT-29
[8] = test system: Hs-578T
[9] = test system: KM12
[10] = test system: M14
[11] = test system: MDA-MB-435
[12] = test system: Malme-3M
[13] = test system: NCI-H522
[14] = test system: OVCAR-5
[15] = test system: SK-MEL-5
[16] = test system: SK-OV-3
[17] = test system: SNB-19
[18] = test system: SR
[19] = test system: TK-10
[20] = test system: UACC-257

CC(=O)OC/C=C(/C=C/CNC1CCCCC1)OC(C)=O
GI50 [1]: 11.5 µM (inactive)
GI50 [2]: 19.8 µM (inactive)
GI50 [3]: 47.8 µM (inactive)
GI50 [4]: 13.8 µM (inactive)
GI50 [5]: 16.5 µM (inactive)
GI50 [6]: 19.2 µM
GI50 [7]: 18.6 µM (inactive)
GI50 [8]: 36.3 µM (inactive)
GI50 [9]: 15.5 µM (inactive)
GI50 [10]: 8.28 µM (inactive)
GI50 [11]: 16 µM (inactive)
GI50 [12]: 14.9 µM (inactive)
GI50 [13]: 21.4 µM (inactive)
GI50 [14]: 16.3 µM (inactive)
GI50 [15]: 17.9 µM (inactive)
GI50 [16]: 19.6 µM (inactive)
GI50 [17]: 24.5 µM (inactive)
GI50 [18]: 10.7 µM (inactive)
GI50 [19]: 16.6 µM (inactive)
GI50 [20]: 15.1 µM (inactive)

CC(C)(C)c1cc(OCc2nnc(S)n2N)c(Cl)cc1OCc1nnc(S)n1N
GI50 [1]: 59.6 µM (inactive)
GI50 [2]: 30.6 µM (inactive)
GI50 [3]: 52.2 µM (inactive)
GI50 [4]: > 100 µM (inactive)
GI50 [5]: 49.7 µM (inactive)
GI50 [6]: 55.8 µM
GI50 [7]: 43.9 µM (inactive)
GI50 [8]: 43 µM (inactive)
GI50 [9]: 40.9 µM (inactive)
GI50 [10]: 51.3 µM (inactive)
GI50 [11]: 39.5 µM (inactive)
GI50 [12]: 38.1 µM (inactive)
GI50 [13]: 35.2 µM (inactive)
GI50 [14]: 63.7 µM (inactive)
GI50 [15]: 26.5 µM (inactive)
GI50 [16]: > 100 µM (inactive)
GI50 [17]: 42.1 µM (inactive)
GI50 [18]: 22.3 µM (inactive)
GI50 [19]: 52.2 µM (inactive)
GI50 [20]: 33 µM (inactive)

CCC(C(=O)c1cccs1)C(O)(C(F)(F)F)C(F)(F)F (stereo not given)
GI50 [1]: > 100 µM (inactive)
GI50 [2]: > 100 µM (inactive)
GI50 [3]: > 100 µM (inactive)
GI50 [4]: > 100 µM (inactive)
GI50 [5]: > 100 µM (inactive)
GI50 [6]: > 100 µM
GI50 [7]: > 100 µM (inactive)
GI50 [8]: > 100 µM (inactive)
GI50 [9]: > 100 µM (inactive)
GI50 [10]: > 100 µM (inactive)
GI50 [11]: > 100 µM (inactive)
GI50 [12]: > 100 µM (inactive)
GI50 [13]: > 100 µM (inactive)
GI50 [14]: > 100 µM (inactive)
GI50 [15]: > 100 µM (inactive)
GI50 [16]: > 100 µM (inactive)
GI50 [17]: > 100 µM (inactive)
GI50 [18]: > 100 µM (inactive)
GI50 [19]: > 100 µM (inactive)
GI50 [20]: > 100 µM (inactive)

C=C1C(=O)OC2CC(C)C3(O)CCC(=O)C3(C)CC12 (stereo not given)
GI50 [1]: 21.3 µM (inactive)
GI50 [2]: 25.8 µM (inactive)
GI50 [3]: 52.4 µM (inactive)
GI50 [4]: 17.5 µM (inactive)
GI50 [5]: 27.2 µM (inactive)
GI50 [6]: 14.9 µM
GI50 [7]: 20.2 µM (inactive)
GI50 [8]: 25.9 µM (inactive)
GI50 [9]: 20.7 µM (inactive)
GI50 [10]: 22 µM (inactive)
GI50 [11]: 39.7 µM (inactive)
GI50 [12]: 19.5 µM (inactive)
GI50 [13]: 14.3 µM (inactive)
GI50 [14]: 23.6 µM (inactive)
GI50 [15]: 36.6 µM (inactive)
GI50 [16]: 46.8 µM (inactive)
GI50 [17]: 18.7 µM (inactive)
GI50 [18]: 23.2 µM (inactive)
GI50 [19]: 26.7 µM (inactive)
GI50 [20]: 43.7 µM (inactive)

COc1cc(C(c2ccccc2)N2C(=O)CC[C@H]2C(=O)O)cc(OC)c1OC (stereo not given in full)
GI50 [1]: > 100 µM (inactive)
GI50 [2]: > 100 µM (inactive)
GI50 [3]: > 100 µM (inactive)
GI50 [4]: > 100 µM (inactive)
GI50 [5]: > 100 µM (inactive)
GI50 [6]: > 100 µM
GI50 [7]: > 100 µM (inactive)
GI50 [8]: > 100 µM (inactive)
GI50 [9]: > 100 µM (inactive)
GI50 [10]: > 100 µM (inactive)
GI50 [11]: > 100 µM (inactive)
GI50 [12]: > 100 µM (inactive)
GI50 [13]: > 100 µM (inactive)
GI50 [14]: > 100 µM (inactive)
GI50 [15]: > 100 µM (inactive)
GI50 [16]: > 100 µM (inactive)
GI50 [17]: > 100 µM (inactive)
GI50 [18]: > 100 µM (inactive)
GI50 [19]: > 100 µM (inactive)
GI50 [20]: > 100 µM (inactive)

COC1C(OC(=O)/C=C/C=C/C=C/C=C/C(=O)O)CCC2(CO2)C1C1(C)OC1CC=C(C)C (stereo not given)
GI50 [1]: 20.5 µM (inactive)
GI50 [2]: > 100 µM (inactive)
GI50 [3]: 18.5 µM (inactive)
GI50 [4]: 43.8 µM (inactive)
GI50 [5]: 27.2 µM (inactive)
GI50 [6]: 24.2 µM
GI50 [7]: 21.1 µM (inactive)
GI50 [8]: 40.2 µM (inactive)
GI50 [9]: 12.4 µM (inactive)
GI50 [10]: 13.6 µM (inactive)
GI50 [11]: 14.6 µM (inactive)
GI50 [12]: 26.2 µM (inactive)
GI50 [13]: 23.2 µM (inactive)
GI50 [14]: > 78.2 µM (inactive)
GI50 [15]: 18.5 µM (inactive)
GI50 [16]: > 59.6 µM (inactive)
GI50 [17]: > 56.1 µM (inactive)
GI50 [18]: 20.6 µM (inactive)
GI50 [19]: 57.9 µM (inactive)
GI50 [20]: 34 µM (inactive)

CC(C)(OCc1ccccc1)c1ccccc1P(c1ccccc1)c1ccccc1
GI50 [1]: 66.4 µM (inactive)
GI50 [2]: 89.3 µM (inactive)
GI50 [3]: 38.7 µM (inactive)
GI50 [4]: 31.7 µM (inactive)
GI50 [5]: 32.9 µM (inactive)
GI50 [6]: 36.4 µM
GI50 [7]: 30.1 µM (inactive)
GI50 [8]: 47.9 µM (inactive)
GI50 [9]: 23.1 µM (inactive)
GI50 [10]: 43.6 µM (inactive)
GI50 [11]: 37.9 µM (inactive)
GI50 [12]: 26.2 µM (inactive)
GI50 [13]: 42.8 µM (inactive)
GI50 [14]: > 100 µM (inactive)
GI50 [15]: 35 µM (inactive)
GI50 [16]: > 100 µM (inactive)
GI50 [17]: 69 µM (inactive)
GI50 [18]: 34.8 µM (inactive)
GI50 [19]: 37.1 µM (inactive)
GI50 [20]: 22.3 µM (inactive)

Reference: ChEMBL document CHEMBL1201862, “PubChem BioAssay data set” (2004)
